What was measured:
immortalized BMDMs = experiment: TNF-α secretion in immortalized BMDMs (WT or TLR4-KO) incubated with CL or LPS; type: cell-based, murine; settings: overnight; for TNF-α secretion: CL alone, immortalized BMDM
Experimental: Immortalized BMDM were seeded the day before the experiment at 5 × 10^5 cells/mL in 48-well plates (500 μL/well).
After stimulation, supernatants were collected, centrifuged, and assayed for cytokine secretion, while cells were assayed for viability.
TNF-α and IP-10 were quantified in cell supernatants using DuoSet ELISA kits from R&D Systems and human IL-1β using Instant ELISA™ Kit from Invitrogen, according to the manufacturer’s instructions. Absorbance was read with a BioTek Synergy HT Microplate Readers.
Fig. 3 Saturated but not unsaturated CLs have pro-inflammatory properties. a RAW-Blue™ cells were incubated overnight with the indicated amount of CL or LPS, supernatants were collected, and NF-κB activation quantified via Quanti-Blue™ test and reported here as fold induction as compared to control. Unpaired t test: differences with respect to the control (Ctrl) are not significant if p > 0.05 (no symbol); *p ≤ 0.0007. b Immortalized BMDM cells were incubated overnight with the indicated amount of CL or LPS; supernatants were collected and TNF-α quantified via ELISA assay. c, d Primary human monocytes were incubated overnight with the indicated amount of CL or LPS with or without the NLRP3 inhibitor MCC950, supernatants were collected, and TNF-α and IL-1β were quantified via ELISA assay. Graphs are representative of experiments from six different donors. Unpaired t test: differences with respect to the control (Ctrl) are not significant if p > 0.05 (no symbol); *p ≤ 0.021. Each bar represents the mean + standard deviation of three biological replicates (n = 3). Graphs are representative of at least three independent experiments
(§1) Fig. 4 Saturated CLs are TLR4 agonists. a HEK293 cells were transfected with plasmids encoding murine TLR4, MD2, and CD14 (mTLR4), human TLR4, MD2, and CD14 (hTLR4) or with empty pcDNA3.1 plasmid, MD2 and CD14 (w/o TLR) together with a luciferase reporter plasmid dependent on NF-κB activation and a constitutively active reporter vector-encoding renilla luciferase. Two days after transfection, cells were incubated for 6 h with medium alone (Ctrl) or the indicated amount of CLs or LPS. Luciferase and renilla were quantified in cell lysate, normalized and reported here as fold induction as compared to control. Unpaired t test: differences compared to the control are not significant if p > 0.05(no symbol); *p ≤ 0.005. b WT and TLR4-KO iBMDM cells were incubated overnight with medium (c), LPS or C14:0 CL. For each condition, mTNF-α was measured by ELISA assay. Unpaired t test: differences with respect to the control are not significant if p > 0.05(no symbol); *p ≤ 0.0001. Each bar represents the mean + standard deviation of three biological replicates (n = 3). Graphs are representative of at least three independent experiments

[1] = target: T1, human TLR4, MD2, and CD14 (Homo sapiens, UniProt O00206+Q9Y6Y9); experiment: NF-κB luciferase reporter activation by CLs in HEK293 cells transfected with human TLR4, MD2 and CD14; type: cell-based; settings: for activation of human TLR4 (NF-κB): 6 h incubation
T1 construct: expressed in transfected cells; host or cells: HEK293 (ATCC CRL1573), transient transfection with jetPEI
Experimental: Cells were seeded at 4 × 10^4 cells/mL in 96-well plates (200 μL/well) and transiently transfected 4 days later. Expression vectors containing an NF-κB transcription reporter vector-encoding firefly luciferase (10 ng/well pNF-κB-luc from Clontech), and a constitutively active reporter vector-encoding Renilla luciferase (5 ng/well phRG-TK; Promega), together with empty vector (pcDNA3.1 from Invitrogen Cat. N. V79020) and cDNA encoding human membrane CD14 (3 ng/well) and human or murine TLR4 and MD2 (3 ng/well) were mixed with jetPEI (Polyplus transfection Cat.N. 101-10N) and incubated with cells according to the manufacturer’s instructions.
After treatment supernatants were discarded, cells were washed with PBS and lysed with passive lysis buffer (Promega Cat.N. E1941). Luciferase and Renilla activity on cell lysates were quantified on a BioTek Synergy HT microplate reader using home-made luciferase reagent (20 mM Tricine, 2.67 mM MgSO4·7H2O, 0.265 mM (MgCO3)4Mg(OH)2·5H2O, 0.1 mM EDTA, 33.3 mM DTT, 530 μM ATP, 270 μM Acetyl Coenzyme A (Lithium salt), 470 μM luciferin (Biosynth), pH 7.8, diluted two times in water before use), or coelenterazine (Biosynth) dissolved in ethanol at 1 mg/mL and diluted 500 times in PBS before use as previously described. Firefly and Renilla luciferase activity on cell lysates were normalized, and data were expressed as fold induction as compared to unstimulated conditions.
The first signaling event of these pathways is NF-κB activation through TLR4 activation. To investigate how the individual CD14, TLR4, and MD2 proteins contribute to the responses of cells to CL, we used the HEK transfection model where we can control which protein (including from different species) may be added to the cells and their contribution to CL activation of Nf-κB [21, 30, 31]. We transfected HEK293 cells with human or murine CD14 and MD2 with or without TLR4 and incubated them with saturated CLs for 6 h (Fig. 4a). All three saturated CLs activated murine TLR4. By contrast, only C16:0 and C18:0 activated the human receptor. To further confirm the role of TLR4, we compared TNF-α secretion induced by C14:0 CL in wild-type (WT) or TLR4 knock out (TLR4 KO) immortalized BMDMs. Both LPS and C14:0 CL induced TNF-α secretion in WT but not in TLR4-KO BMDMs (Fig. 4b). TLR4-KO BMDMs were normally responsive to TLR2 ligand Pam3CSK4 (data not shown).
as §1, with “Graphs are representative of at least three independent experiments” left out

T1 sequence (O00206 24-839): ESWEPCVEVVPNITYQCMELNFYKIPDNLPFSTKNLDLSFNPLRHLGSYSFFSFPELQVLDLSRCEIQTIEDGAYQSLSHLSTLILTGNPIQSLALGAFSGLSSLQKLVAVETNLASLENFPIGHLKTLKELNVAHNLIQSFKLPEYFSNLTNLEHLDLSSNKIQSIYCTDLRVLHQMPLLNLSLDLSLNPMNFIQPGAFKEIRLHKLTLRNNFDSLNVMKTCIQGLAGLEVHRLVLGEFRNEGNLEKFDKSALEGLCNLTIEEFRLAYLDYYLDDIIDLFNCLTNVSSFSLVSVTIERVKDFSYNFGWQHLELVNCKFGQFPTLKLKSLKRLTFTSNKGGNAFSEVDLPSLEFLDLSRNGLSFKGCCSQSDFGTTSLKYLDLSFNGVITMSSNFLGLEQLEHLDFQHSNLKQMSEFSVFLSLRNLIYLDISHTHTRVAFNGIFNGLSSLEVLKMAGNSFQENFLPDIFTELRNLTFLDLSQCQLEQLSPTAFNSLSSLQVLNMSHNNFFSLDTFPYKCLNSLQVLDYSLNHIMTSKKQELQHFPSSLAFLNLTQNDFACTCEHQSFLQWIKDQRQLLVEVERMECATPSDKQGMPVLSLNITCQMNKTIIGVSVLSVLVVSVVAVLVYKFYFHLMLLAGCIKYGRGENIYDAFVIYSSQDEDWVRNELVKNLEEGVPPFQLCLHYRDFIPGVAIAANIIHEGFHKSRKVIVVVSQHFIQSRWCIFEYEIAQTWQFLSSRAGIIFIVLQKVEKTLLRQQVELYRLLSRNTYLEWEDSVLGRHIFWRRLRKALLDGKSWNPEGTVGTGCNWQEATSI
T1 sequence (Q9Y6Y9 19-160): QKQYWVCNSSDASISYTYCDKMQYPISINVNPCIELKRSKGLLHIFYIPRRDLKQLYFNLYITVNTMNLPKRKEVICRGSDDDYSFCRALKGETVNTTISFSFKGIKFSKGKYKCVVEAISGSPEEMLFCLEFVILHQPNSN

Row | Structure (SMILES) | TNF-α secretion (immortalized BMDMs) | TNF-α secretion in WT iBMDMs (immortalized BMDMs; wild-type) | activation of human TLR4 (NF-κB) [1] | NF-κB induction in HEK293 cells transfected with TLR4 in the absence of CD14 or MD2 ([1]; hTLR4 without CD14 or without MD2, 6 h)
1 | CCCCCCCCCCCCCC(=O)OC[C@H](COP(=O)(O)OCC(O)COP(=O)(O)OC[C@@H](COC(=O)CCCCCCCCCCCCC)OC(=O)CCCCCCCCCCCCC)OC(=O)CCCCCCCCCCCCC (stereo partly drawn) [C14:0 CL] | induced | induced | not | –
2 | CCCCCCCCCCCCCCCCCC(=O)OC[C@H](COP(=O)(O)OCC(O)COP(=O)(O)OC[C@@H](COC(=O)CCCCCCCCCCCCCCCCC)OC(=O)CCCCCCCCCCCCCCCCC)OC(=O)CCCCCCCCCCCCCCCCC (stereo partly drawn) [C18:0 CL] | induced | – | activated | not induced

Reference: publication PMC6697720, “Saturation of acyl chains converts cardiolipin from an antagonist to an activator of Toll-like receptor-4” (Cellular and Molecular Life Sciences: CMLS, 2019)
